For one data set, the target named is T1, α3β3γ2 human GABAARs (Homo sapiens, UniProt P18507+P34903).
T1 construct: expressed in transfected cells; host or cells: mouse fibroblasts, stably expressing; membranes prepared
Kind of data set: [^3H]flumazenil in vitro binding assay, α3β3γ2. The following applies: read-out: Affinity at human GABAAR subtypes, α3β3γ2 (mean Ki). As to the method: (§1) These samples were serially diluted in 100% DMSO in half-log units such that when 5 µl were added into a total assay volume of 500 µl, the final DMSO concentration in the assay was 1%.
(§2) In brief, mouse fibroblasts stably expressing the four subtypes of human GABAARs that contain a benzodiazepine binding site (i.e., α1-, α2-, α3- and α5β3γ2) were grown, harvested, and membranes were prepared and frozen at -80 °C until required. On the day of the assay, membranes were thawed and reconstituted in assay buffer (75 mM Tris.Cl, pH 7.4, 1 mM EDTA, 12.5 mM MgCl2) at a concentration of 101 µg/ml for α1β3γ2 and 51 µg/ml for α2-, α3- and α5β3γ2 membrane. […] Incubations were performed for 1 h at room temperature before being terminated by filtration and rapid washing (2 × 10 ml of ice-cold 50 mM Tris.Cl, pH 7.4 buffer) over Whatman GF/B filters using a Brandel cell harvester. Filters were then placed in scintillation vials, 4 ml of scintillation fluid added, and radioactivity was counted on a Tricarb 2900 scintillation counter.

The target in another data set is T2, α2β3γ2 human GABAARs (Homo sapiens, UniProt P18507+P47869).
T2 construct: expressed in transfected cells; host or cells: mouse fibroblasts, stably expressing; membranes prepared
Kind of data set: [^3H]flumazenil in vitro binding assay, α2β3γ2. The following applies: read-out: Affinity at human GABAAR subtypes, α2β3γ2 (mean Ki). The procedure: as §1, §2

Another data set deals with T3, α5β3γ2 human GABAARs (Homo sapiens, UniProt P18507+P31644).
T3 construct: expressed in transfected cells; host or cells: mouse fibroblasts, stably expressing; membranes prepared
As to the kind of experiment: [^3H]flumazenil in vitro binding assay, α5β3γ2. The procedure:
as §1, §2

For the next data set, the target named is T4, α1β3γ2 human GABAARs (Homo sapiens, UniProt P14867+P18507).
T4 construct: expressed in transfected cells; host or cells: mouse fibroblasts, stably expressing; membranes prepared
Kind of data set: [^3H]flumazenil in vitro binding assay, α1β3γ2. As to the method: as §1, §2

Data set [1] is described as follows: Preliminary studies on storage stability of the precursor. It counts as physicochemical. The following applies: room temperature.
[2] abbreviates: mouse fibroblast membranes, 4 nM [^3H]flumazenil, Cheng-Prusoff, mean ± SEM of n = 4 separate assays.

As a reminder, the Ki is the equilibrium dissociation constant of an inhibitor or competing ligand from its target.

SMILES strings stand for the structures. Where two headings read alike, the source gives them in different places.

T2 sequence (P47869 29-451): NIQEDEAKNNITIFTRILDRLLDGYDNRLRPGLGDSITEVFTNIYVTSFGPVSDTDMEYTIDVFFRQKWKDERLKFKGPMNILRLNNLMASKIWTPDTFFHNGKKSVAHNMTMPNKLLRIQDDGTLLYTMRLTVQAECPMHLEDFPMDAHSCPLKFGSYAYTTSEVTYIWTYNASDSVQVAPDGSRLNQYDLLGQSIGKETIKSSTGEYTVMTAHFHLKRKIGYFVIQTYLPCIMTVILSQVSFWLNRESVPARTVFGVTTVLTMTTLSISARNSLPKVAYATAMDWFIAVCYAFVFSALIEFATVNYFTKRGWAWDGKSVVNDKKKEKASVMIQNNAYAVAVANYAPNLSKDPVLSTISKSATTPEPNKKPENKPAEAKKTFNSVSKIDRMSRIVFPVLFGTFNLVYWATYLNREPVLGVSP
T2 sequence (P28472 26-473 partner): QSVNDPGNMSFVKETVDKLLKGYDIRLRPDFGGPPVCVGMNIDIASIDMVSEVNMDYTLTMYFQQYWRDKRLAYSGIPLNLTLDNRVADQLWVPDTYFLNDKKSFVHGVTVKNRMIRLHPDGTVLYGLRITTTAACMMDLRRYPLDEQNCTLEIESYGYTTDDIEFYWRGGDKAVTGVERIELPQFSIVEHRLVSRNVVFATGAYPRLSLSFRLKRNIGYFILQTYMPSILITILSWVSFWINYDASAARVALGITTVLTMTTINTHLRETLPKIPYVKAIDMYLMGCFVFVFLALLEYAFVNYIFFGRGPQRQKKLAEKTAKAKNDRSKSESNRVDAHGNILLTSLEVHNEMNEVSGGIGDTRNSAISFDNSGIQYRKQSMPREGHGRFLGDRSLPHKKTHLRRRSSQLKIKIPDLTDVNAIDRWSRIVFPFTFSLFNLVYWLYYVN
T2 sequence (P18507 40-475): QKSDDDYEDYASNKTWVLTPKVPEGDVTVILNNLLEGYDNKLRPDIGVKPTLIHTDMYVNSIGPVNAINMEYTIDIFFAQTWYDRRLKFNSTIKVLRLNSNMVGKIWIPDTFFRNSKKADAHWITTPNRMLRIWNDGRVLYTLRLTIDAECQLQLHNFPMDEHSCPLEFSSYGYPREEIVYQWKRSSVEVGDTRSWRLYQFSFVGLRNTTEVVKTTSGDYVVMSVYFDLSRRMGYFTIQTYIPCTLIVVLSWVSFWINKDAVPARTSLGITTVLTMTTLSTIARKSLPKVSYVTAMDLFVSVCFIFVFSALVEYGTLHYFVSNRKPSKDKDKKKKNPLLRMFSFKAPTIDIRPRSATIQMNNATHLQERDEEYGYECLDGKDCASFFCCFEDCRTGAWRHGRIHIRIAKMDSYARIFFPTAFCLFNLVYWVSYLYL
T1 sequence (P34903 29-492): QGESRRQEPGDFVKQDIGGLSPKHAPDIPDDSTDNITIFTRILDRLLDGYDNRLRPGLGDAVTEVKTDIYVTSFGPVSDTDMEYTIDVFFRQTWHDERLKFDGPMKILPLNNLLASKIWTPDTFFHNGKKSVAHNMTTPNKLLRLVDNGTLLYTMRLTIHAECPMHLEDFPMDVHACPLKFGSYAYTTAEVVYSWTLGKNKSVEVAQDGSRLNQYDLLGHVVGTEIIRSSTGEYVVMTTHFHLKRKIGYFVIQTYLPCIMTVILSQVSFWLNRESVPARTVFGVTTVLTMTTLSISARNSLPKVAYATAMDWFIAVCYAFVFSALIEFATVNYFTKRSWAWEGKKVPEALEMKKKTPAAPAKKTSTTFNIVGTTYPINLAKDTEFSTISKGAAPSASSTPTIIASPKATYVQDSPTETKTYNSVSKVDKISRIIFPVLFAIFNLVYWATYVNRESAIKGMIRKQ
T1 sequence (P28472 26-473 partner): as the sequence (P28472 26-473 partner) above
T1 sequence (P18507 40-475): as the sequence (P18507 40-475) above
T3 sequence (P31644 32-462): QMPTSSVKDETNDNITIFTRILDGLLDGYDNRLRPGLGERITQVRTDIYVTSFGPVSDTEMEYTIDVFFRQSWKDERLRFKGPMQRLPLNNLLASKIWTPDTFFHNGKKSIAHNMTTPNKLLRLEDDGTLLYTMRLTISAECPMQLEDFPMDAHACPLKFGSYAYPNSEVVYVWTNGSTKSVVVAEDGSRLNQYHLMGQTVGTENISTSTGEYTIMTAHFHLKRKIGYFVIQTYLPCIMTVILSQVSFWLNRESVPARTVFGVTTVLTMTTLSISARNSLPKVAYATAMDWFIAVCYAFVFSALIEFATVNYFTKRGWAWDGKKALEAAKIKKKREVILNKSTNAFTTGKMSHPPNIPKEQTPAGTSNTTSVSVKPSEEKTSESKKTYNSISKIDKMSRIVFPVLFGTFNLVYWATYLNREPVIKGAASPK
T3 sequence (P28472 26-473 partner): as the sequence (P28472 26-473 partner) above
T3 sequence (P18507 40-475): as the sequence (P18507 40-475) above
T4 sequence (P14867 28-456): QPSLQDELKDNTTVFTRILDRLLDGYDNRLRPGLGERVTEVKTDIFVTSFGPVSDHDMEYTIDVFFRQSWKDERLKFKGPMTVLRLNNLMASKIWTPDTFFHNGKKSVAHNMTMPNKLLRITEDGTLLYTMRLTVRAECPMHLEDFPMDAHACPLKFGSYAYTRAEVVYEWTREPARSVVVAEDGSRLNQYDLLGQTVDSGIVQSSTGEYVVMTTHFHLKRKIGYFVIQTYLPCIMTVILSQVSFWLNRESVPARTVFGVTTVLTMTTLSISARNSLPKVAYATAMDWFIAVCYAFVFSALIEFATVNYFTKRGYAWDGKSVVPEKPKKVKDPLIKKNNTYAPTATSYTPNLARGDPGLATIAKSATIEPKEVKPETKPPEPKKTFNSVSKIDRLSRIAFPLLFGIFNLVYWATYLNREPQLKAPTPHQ
T4 sequence (P28472 26-473 partner): as the sequence (P28472 26-473 partner) above
T4 sequence (P18507 40-475): as the sequence (P18507 40-475) above

On to `CCOC(=O)c1ncn2c1CN(C)C(=O)c1cc(O)ccc1-2` [OHMZ, Flumazenil impurity B], for which the Ki on α3β3γ2 human GABAARs (setting [2]) was determined as 2.7 ± 0.9 nM; at α2β3γ2 human GABAARs (setting [2]), 7.3 ± 1.5 nM; on α5β3γ2 human GABAARs (mouse fibroblast membranes, 4 nM [^3H]flumazenil, Cheng-Prusoff, mean ± SEM of n = 4 separate assays, read-out: Affinity at human GABAAR subtypes, α5β3γ2 (mean Ki)), 0.5 ± 0.1 nM; at α1β3γ2 human GABAARs (mouse fibroblast membranes, 4 nM [^3H]flumazenil, Cheng-Prusoff, mean ± SEM of n = 4 separate assays, read-out: Affinity at human GABAAR subtypes, α1β3γ2 (mean Ki)), 5.4 ± 0.6 nM.

With `CCOC(=O)c1ncn2c1CN(C)C(=O)c1cc(B3OC(C)(C)C(C)(C)O3)ccc1-2` [FMZ-BPin, Ethyl 5-methyl-6-oxo-8(4,4,5,5-tetramethyl-1,3,2-dioxaborolan-2-yl)-5,6-dihydro-4H-benzo[f]imidazo[1,5-a][1,4]diazepine-3-carboxylate], in data set [1], the “Stable for prolonged storage” value is more than 9 months.

As to `CCOC(=O)c1ncn2c1CN(C)C(=O)c1ccccc1-2` [HMZ, ethyl 5-methyl-6-oxo-5,6-dihydro-4H-benzo[f]imidazo[1,5-a][1,4]diazepine-3-carboxylate], the Ki at α3β3γ2 human GABAARs is 11 ± 4 nM; on α2β3γ2 human GABAARs, 15 ± 2 nM; on α5β3γ2 human GABAARs, 1.7 ± 0.2 nM; on α1β3γ2 human GABAARs it was 24 ± 3 nM.

Source of the values: paper PMC8934836 (EJNMMI Radiopharmacy and Chemistry, 2022).
